The results in this text go back to patent US20240252445A1, “COMPOSITIONS AND METHODS OF PROMOTING AC[…] […] AND DIAGNOSTIC AGENTS IN THE HEART” (CASE WESTERN RESERVE UNIVERSITY, priority 2021, published 2024).

For this data set the following is noted: NBDG 1 mg/kg.

Consider `O=[N+]([O-])c1ccc(N[C@H]2C(O)O[C@H](CO)[C@@H](O)[C@@H]2O)c2nonc12` (some centres unmarked) [NBDG], for which the NBDG fluorescence localisation result (animals pre-injected with ePL, after organ perfusion) is on record as “highly localized in the heart”. Moreover, the “NBDG fluorescence in the heart in competition with unlabeled glucose” value (ePL pre-injected, unlabeled glucose 500 mg/kg) is given as “diminished”.
